Measurements: patent US20070191336A1 (priority 2003, published 2007)
pIC50: −log10 of the molar value.

target: T1, phospho p-38 alpha kinase (Homo sapiens, UniProt Q16539); test: P-38 alpha kinase assay (spectrophotometric, pyruvate kinase/lactate dehydrogenase coupled); format: biochemical; conditions: Table 3; rates from […] to 2 h time frame
T1 construct: purchased Panvera
Method: In this assay, the oxidation of NADH was continuously measured spectrophometrically. […] The reaction was initiated by adding ATP. The absorption at 340 nm was monitored continuously for up to 4 hours at 30° C. on Polarstar Optima plate reader (BMG). The kinase activity (reaction rate) was calculated from the slope at the time frame from 1.5 h to 2 h.
For inhibition determinations, test compounds were incubated with the reaction mixture for ˜5 min before adding ATP to start the reaction. […] IC50 values were calculated from a series of % inhibition values determined at a range of concentrations of each inhibitor using Prism to process the data and fit inhibition curves. Generally, the rates obtained at the time frame of 1.5 h to 2 h were used for these calculations.

T1 sequence (Q16539 whole entry): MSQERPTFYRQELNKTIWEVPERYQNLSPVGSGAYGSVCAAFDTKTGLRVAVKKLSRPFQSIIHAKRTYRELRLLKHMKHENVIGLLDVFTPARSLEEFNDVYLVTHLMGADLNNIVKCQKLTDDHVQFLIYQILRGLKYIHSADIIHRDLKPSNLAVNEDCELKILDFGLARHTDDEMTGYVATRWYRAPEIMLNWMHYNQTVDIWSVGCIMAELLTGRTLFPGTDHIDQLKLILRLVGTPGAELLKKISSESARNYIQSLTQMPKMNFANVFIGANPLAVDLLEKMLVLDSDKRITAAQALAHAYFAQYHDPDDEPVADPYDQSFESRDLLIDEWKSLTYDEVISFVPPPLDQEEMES

| pIC50 | Structure (SMILES) |
| --- | --- |
| 7.05 | CC(C)(C)c1cc(NC(=O)Nc2ccccc2F)n(-c2cccc(CO)c2)n1 [Example 303, 1-{3-t-butyl-1-[3-(hydroxymethyl)phenyl]-1H-pyrazol-5-yl}-3-(2-fluorophenyl)urea] |
| 7.24 | CC(C)(C)c1cc(NC(=O)Nc2ccccc2F)n(-c2ccc(CC(=O)O)cc2)n1 [Example 306, 2-(4-(3-t-butyl-5-(3-(2-fluorophenyl)ureido)-1H-pyrazol-1-yl)phenyl)acetic acid] |
| 6.92 | CC(C)(C)c1cc(NC(=O)Nc2cccc3ccccc23)n(-c2cccc(CN3C(=O)CCC3=O)c2)n1 [Example 308, 1-(3-t-butyl-1-{3-[(2,5-dioxopyrrolidin-1-yl)methyl]phenyl}-1H-pyrazol-5-yl)-3-(naphthalen-1-yl)urea] |
| 6.89 | COc1cccc(-n2nc(C(C)(C)C)cc2NC(=O)Nc2cccc(F)c2)c1 [Example 310, 1-(3-t-butyl-1-(3-methoxyphenyl)-1H-pyrazol-5-yl)-3-(3-fluorophenyl)urea] |
| 6.74 | COc1cccc(-n2nc(C(C)(C)C)cc2NC(=O)Nc2cccc(Cl)c2)c1 [Example 311, 1-(3-t-butyl-1-(3-methoxyphenyl)-1H-pyrazol-5-yl)-3-(3-chlorophenyl)urea] |
| 6.60 | COc1cccc(-n2nc(C(C)(C)C)cc2NC(=O)Nc2cccc(C)c2)c1 [Example 313, 1-(3-t-butyl-1-(3-methoxyphenyl)-1H-pyrazol-5-yl)-3-m-tolylurea] |
| 6.60 | COc1cccc(-n2nc(C(C)(C)C)cc2NC(=O)Nc2ccc(C(F)(F)F)cc2)c1 [Example 314, 1-(3-t-butyl-1-(3-methoxyphenyl)-1H-pyrazol-5-yl)-3-(4-(trifluoromethyl)phenyl)urea] |
| 6.38 | COc1cccc(-n2nc(C(C)(C)C)cc2NC(=O)Nc2ccc(Cl)c(C(F)(F)F)c2)c1 [Example 316, 1-(3-t-butyl-1-(3-methoxyphenyl)-1H-pyrazol-5-yl)-3-(4-chloro-3-(trifluoromethyl)phenyl)urea] |
| 6.17 | COc1cccc(-n2nc(C(C)(C)C)cc2NC(=O)Nc2ccc(Cl)cc2Cl)c1 [Example 318, 1-(3-t-butyl-1-(3-methoxyphenyl)-1H-pyrazol-5-yl)-3-(2,4-dichlorophenyl)urea] |
| 6.49 | COc1cccc(-n2nc(C(C)(C)C)cc2NC(=O)Nc2cc(Cl)cc(Cl)c2)c1 [Example 319, 1-(3-t-butyl-1-(3-methoxyphenyl)-1H-pyrazol-5-yl)-3-(3,5-dichlorophenyl)urea] |
| 6.10 | CC(C)(C)c1cc(NC(=O)Nc2ccc(Cl)cc2)n(-c2cccc(CN3C(=O)CCC3=O)c2)n1 [Example 320, 1-(3-t-butyl-1-{3-[(2,5-dioxopyrrolidin-1-yl)methyl]phenyl}-1H-pyrazol-5-yl)-3-(4-chlorophenyl)urea] |
| 5.69 | COc1cccc(-n2nc(C(C)(C)C)cc2NC(=O)Nc2ccc(C#N)cc2)c1 [Example 322, 1-(3-t-butyl-1-(3-methoxyphenyl)-1H-pyrazol-5-yl)-3-(4-cyanophenyl)urea] |
| 6.09 | COc1cccc(-n2nc(C(C)(C)C)cc2NC(=O)Nc2ccsc2)c1 [Example 327, 1-(3-t-butyl-1-(3-methoxyphenyl)-1H-pyrazol-5-yl)-3-(thiophen-3-yl)urea] |
| 6.60 | COc1cccc(-n2nc(C(C)(C)C)cc2NC(=O)Nc2ccc3c(c2)OCO3)c1 [Example 329, 1-(benzo[d][1,3]dioxo-5-yl)-3-(3-t-butyl-1-(3-methoxyphenyl)-1H-pyrazol-5-yl)urea] |
| 7.30 | COc1cccc(-n2nc(-c3ccccc3)cc2NC(=O)Nc2cccc(Br)c2)c1 [Example 332] |
| 5.61 | COc1cccc(-n2nc(-c3ccccc3)cc2NC(=O)Nc2cccc(C(F)(F)F)c2)c1 [Example 333] |
| 5.66 | COc1cccc(NC(=O)Nc2cc(-c3ccccc3)nn2-c2cccc(OC)c2)c1 [Example 334, 1-(3-methoxyphenyl)-3-(1-(3-methoxyphenyl)-3-phenyl-1H-pyrazol-5-yl)urea] |
| 7.85 | COc1cccc(-n2nc(-c3ccccc3)cc2NC(=O)Nc2cccc(Cl)c2Cl)c1 [Example 335] |

| Structure (SMILES) | pIC50 |
| --- | --- |
| CC(C)(C)c1cc(NC(=O)Nc2cccc(F)c2F)n(-c2ccc(CC(=O)O)cc2)n1 [Example 307, 2-(4-(3-t-butyl-5-(3-(2,3-difluorophenyl)ureido)-1H-pyrazol-1-yl)-phenyl)acetic acid] | 7.31 |
| COc1cccc(-n2nc(C(C)(C)C)cc2NC(=O)Nc2ccc(F)cc2)c1 [Example 309, 1-(3-t-butyl-1-(3-methoxyphenyl)-1H-pyrazol-5-yl)-3-(4-fluorophenyl)urea] | 6.52 |
| COc1cccc(-n2nc(C(C)(C)C)cc2NC(=O)Nc2cccc(Br)c2)c1 [Example 312, 1-(3-t-butyl-1-(3-methoxyphenyl)-1H-pyrazol-5-yl)-3-(3-bromophenyl)urea] | 6.46 |
| COc1cccc(-n2nc(C(C)(C)C)cc2NC(=O)Nc2ccc(Cl)c(Cl)c2)c1 [Example 317, 1-(3-t-butyl-1-(3-methoxyphenyl)-1H-pyrazol-5-yl)-3-(3,4-dichlorophenyl)urea] | 7.17 |
| COc1cccc(-n2nc(C(C)(C)C)cc2NC(=O)Nc2ccc([N+](=O)[O-])cc2)c1 [Example 321, 1-(3-t-butyl-1-(3-methoxyphenyl)-1H-pyrazol-5-yl)-3-(4-nitrophenyl)urea] | 6.28 |

same assay, conditions: read-out: % Inhibition @ concentration, Table 3; at 1 uM

| Structure (SMILES) | inhibition at 1 µM |
| --- | --- |
| CCOC(=O)C(C)Cc1cccc(-n2nc(C(C)(C)C)cc2NC(=O)Nc2cccc3ccccc23)c1 (racemic) [Example 200] | 73% |
| COc1cccc(-n2nc(C(C)(C)C)cc2NC(=O)Nc2ccc(N(C)C)cc2)c1 [Example 323, 1-(3-t-butyl-1-(3-methoxyphenyl)-1H-pyrazol-5-yl)-3-(4-(dimethylamino)phenyl)urea] | 9% |

same assay, conditions: read-out: % Inhibition @ concentration, Table 3; at 10 uM

| Structure (SMILES) | inhibition at 10 µM |
| --- | --- |
| CC(C)(C)c1cc(NC(=O)Nc2ccc(F)cc2)n(-c2cccc(CCC(=O)O)c2)n1 [Example 146, 3-(3-{3-t-butyl-5-[3-(4-fluoro-phenyl)-ureido]-pyrazol-1-yl}-phenyl)-propionic acid] | 9% |
| CCOC(=O)CCc1cccc(-n2nc(C(C)(C)C)cc2NC(=O)Nc2ccc(OC)cc2)c1 [Example 147, 3-(3-{3-t-butyl-5-[3-(4-methoxy-phenyl)-ureido]-pyrazol-1-yl}-phenyl)-propionic acid ethyl ester] | 27% |
| CC(C)(C)c1cc(NC(=O)c2nccc3ccccc23)n(-c2cccc(CCC(=O)O)c2)n1 [Example 150, 3-(3-{3-t-butyl-5-[(isoquinoline-1-carbonyl)-amino]-pyrazol-1-yl}-phenyl)-propionic acid] | 53% |
| CCOC(=O)CCc1cccc(-n2nc(C(C)(C)C)cc2NC(=O)c2ccc3ccccc3c2)c1 [Example 154, 3-(3-{3-t-butyl-5-[(naphthalene-2-carbonyl)-amino]-pyrazol-1-yl}-phenyl)-propionic acid ethyl ester] | 21% |
| CC(C)(C)c1cc(NC(=O)c2ccc3ccccc3c2)n(-c2cccc(CCC(=O)O)c2)n1 [Example 155] | 58% |
| COc1cccc(-n2nc(C(C)(C)C)cc2NC(=O)Nc2cccc(C(F)(F)F)c2)c1 [Example 315, 1-(3-t-butyl-1-(3-methoxyphenyl)-1H-pyrazol-5-yl)-3-(3-(trifluoromethyl)phenyl)urea] | 54% |
| COc1cccc(-n2nc(C(C)(C)C)cc2NC(=O)Nc2ccc(N(C)C)cc2)c1 [Example 323, 1-(3-t-butyl-1-(3-methoxyphenyl)-1H-pyrazol-5-yl)-3-(4-(dimethylamino)phenyl)urea] | 51% |
| COc1cccc(-n2nc(C(C)(C)C)cc2NC(=O)Nc2cccc(N(C)C)c2)c1 [Example 324, 1-(3-t-butyl-1-(3-methoxyphenyl)-1H-pyrazol-5-yl)-3-(3-(dimethylamino)phenyl)urea] | 40% |
| COc1cccc(-n2nc(C(C)(C)C)cc2NC(=O)Nc2cccc(C#N)c2)c1 [Example 325, 1-(3-t-butyl-1-(3-methoxyphenyl)-1H-pyrazol-5-yl)-3-(3-cyanophenyl)urea] | 54% |
| COc1cccc(NC(=O)Nc2cc(C(C)(C)C)nn2-c2cccc(OC)c2)c1 [Example 326, 1-(3-t-butyl-1-(3-methoxyphenyl)-1H-pyrazol-5-yl)-3-(3-methoxyphenyl)urea] | 41% |
| COc1cccc(-n2nc(C(C)(C)C)cc2NC(=O)Nc2cccnc2)c1 [Example 328, 1-(3-t-butyl-1-(3-methoxyphenyl)-1H-pyrazol-5-yl)-3-(pyridin-3-yl)urea] | 68% |
| COc1cccc(-n2nc(-c3ccccc3)cc2NC(=O)Nc2cccc(Cl)c2)c1 [Example 331] | 71% |
| COc1cccc(-n2nc(C)cc2NC(=O)Nc2cccc(Cl)c2)c1 [Example 336, 1-(3-chlorophenyl)-3-(1-(3-methoxyphenyl)-3-methyl-1H-pyrazol-5-yl)urea] | 27% |

same assay, conditions: read-out: % inhibition @ concentration, Table 2; at 10 uM

| Structure (SMILES) | inhibition at 10 µM |
| --- | --- |
| CC1(C(=O)NCc2cccc(-n3nc(C(C)(C)C)cc3NC(=O)Nc3ccc(Cl)cc3)c2)CC2(C)CC(C)(C1)C(=O)NC2=O (centres unmarked) [Example 10, 1,5,7-trimethyl-2,4-dioxo-3-aza-bicyclo[3.3.1]nonane-7-carboxylic acid 3-{3-t-butyl-5-[3-(4-chloro-phenyl)-ureido]-pyrazol-1-yl}benzylamide] | 83% |
| CC(C)(C)c1cc(NC(=O)Nc2cccc3ccccc23)n(-c2cccc(C(=O)N3C(=O)OC[C@H]3c3ccccc3)c2)n1 [Example 17, D-1-{5-tert-butyl-2-[3-(2-oxo-4-phenyl-oxazolidinyl-3-carbonyl)phenyl]-2H-pyrazol-3-yl}-3-(naphthalen-1-yl)urea] | 40% |
| CC(C)(C)c1cc(NC(=O)Nc2cccc3ccccc23)n(-c2cccc(C(=O)N3C(=O)OC[C@@H]3c3ccccc3)c2)n1 [Example 18, L-1-{5-tert-butyl-2-[3-(2-oxo-4-phenyl-oxazolidinyl-3-carbonyl)phenyl]-2H-pyrazol-3-yl}-3-(naphthalen-1-yl)urea] | 60% |
